Results: patent US3985740A, “7-[D-(α-amino-α-phenyl-, 2-thienyl- and 3-thienylacetamido)]-3-(5-methylthiazol-2-yl)carbonylthiomethyl-3-cephem -4-carboxylic acids” (Bristol-Myers Company, priority 1974, dated 1976)
Converted amounts (≈) assume the structure as drawn. Read-outs that look alike come from different tables or passages of the source.

What was measured:
Ser. marcescens A20019 = test: M.I.C. by tube dilution; type: cell-based; conditions: Serratia marcescens
Pr. mirabilis A9900 = test: M.I.C. by tube dilution; type: cell-based; conditions: Proteus mirabilis, A9900, at 10^-^4 dilution, overnight 37° C.
S. aureus Smith A9537 = test: M.I.C. by tube dilution; type: cell-based; conditions: Staphylococcus aureus, overnight 37° C., read-out: M.I.C.
E. coli Juhl A15119 = test: M.I.C. by tube dilution; type: cell-based; conditions: Escherichia coli, JUHLA15119
D. pneumoniae A9585 = test: M.I.C. by tube dilution; type: cell-based; conditions: Streptococcus pneumoniae, D. pneumoniae + 5% serum, 50% Nutrient Broth - 45% Antibiotic Assay Broth, overnight 37° C.
Str. pyogenes A9604 = test: M.I.C. by tube dilution; type: cell-based; conditions: Streptococcus pyogenes, Str. pyogenes + 5% serum, 50% Nutrient Broth - 45% Antibiotic Assay Broth, overnight 37° C.
K. pneumoniae A9977 = test: M.I.C. by tube dilution; type: cell-based; conditions: Klebsiella pneumoniae, A9977; at 10^-^4 dilution; overnight 37° C.; read-out: M.I.C.
[1] = test system: S. aureus BX 1633-2 A9606; test: M.I.C. by tube dilution; type: cell-based; conditions: Staphylococcus aureus, overnight 37° C., read-out: M.I.C.
Sal. enteritidis A9531 = test: M.I.C. by tube dilution; type: cell-based; conditions: Salmonella enterica, ENTERITIDIS; at 10^-^4 dilution; overnight 37° C.; read-out: M.I.C.
K. pneumoniae A15130 = test: M.I.C. by tube dilution; type: cell-based; conditions: Klebsiella pneumoniae, A15130, at 10^-^4 dilution, overnight 37° C.
[2] = test system: S. aureus methicillin-resistant A15097; test: M.I.C. by tube dilution; type: cell-based; conditions: Staphylococcus aureus, at 10^-^3 dilution, overnight 37° C.
[3] = test system: certain important pathogenic organisms; test: In vitro activity in the primary screening tests (overall); type: cell-based; conditions: in words
Source text: This combination of good oral absorption and high antibacterial activity in a cephalosporin while highly desirable is quite uncommon in compounds reported to date. […] To illustrate the unpredictability of oral absorption and antibacterial activity in a closely related series of cephalosporin compounds, Tables 1-8 below compare in vitro activities and oral absorption as tested in the mouse of the compounds of the formula ##SPC12##

E. coli A9675 = test: M.I.C. by tube dilution; type: cell-based; conditions: Escherichia coli, A9675; at 10^-^4 dilution; overnight 37° C.; read-out: M.I.C.
Ps. aeruginosa A9843A = test: M.I.C. by tube dilution; type: cell-based; conditions: Pseudomonas aeruginosa
S. aureus A9748 = test: M.I.C. by tube dilution; type: cell-based; conditions: Staphylococcus aureus, overnight 37° C., read-out: M.I.C.
[4] = Blood levels in the mouse after oral administration; type: in vivo; conditions: for concentration at 0.5 h / concentration at 1 h / concentration at 2 h / concentration at 3.5 h: blood, 100 mg/kg, read-out: Blood Level; for concentration at 1 h: 1 hr. after administration; for concentration at 2 h: 2 hrs. after administration; for concentration at 3.5 h: 3.5 hrs. after administration
Method: Blood levels in the mouse after oral administration were
determined with the following results:

Pr. morganii A15153 = test: M.I.C. by tube dilution; type: cell-based; conditions: Morganella morganii
[5] = SMITHA9537, + 50% serum, at 10^-^4 dilution
[6] = BX16332A9606, at 10^-^2 dilution
[7] = BX16332A9606, at 10^-^3 dilution
[8] = mouse, oral, 100 mgm./kg., 0.5 hrs. after administration
[9] = at 10^-^4 dilution, overnight 37° C., read-out: M.I.C.

SMILES	MIC (Ser. marcescens A20019) [µg/mL]	MIC (Pr. mirabilis A9900; read-out: M.I.C.) [µg/mL]	MIC (S. aureus Smith A9537; [5]) [µg/mL]	MIC (S. aureus Smith A9537; SMITHA9537, at 10^-^4 dilution) [µg/mL]	MIC (D. pneumoniae A9585) [µg/mL]	MIC (Str. pyogenes A9604) [µg/mL]	MIC (K. pneumoniae A9977) [µg/mL]	MIC [1, 6] [µg/mL]	MIC [1, 7] [µg/mL]	MIC (Sal. enteritidis A9531) [µg/mL]	MIC [2] [µg/mL]	MIC (E. coli A9675) [µg/mL]	MIC (Ps. aeruginosa A9843A) [µg/mL]	MIC (S. aureus A9748; A9748, at 10^-^2 dilution) [µg/mL]	MIC (S. aureus A9748; A9748, at 10^-^3 dilution) [µg/mL]	concentration at 0.5 h [4, 8] [ng/mL]	concentration at 1 h ([4]; mouse, oral, 100 mgm./kg.) [ng/mL]	concentration at 2 h ([4]; mouse, oral, 100 mgm./kg.) [ng/mL]	concentration at 3.5 h ([4]; mouse, oral, 100 mgm./kg.) [ng/mL]	MIC (E. coli Juhl A15119; [9]) [µg/mL]	further results
N[C@@H](C(=O)NC1C(=O)N2C(C(=O)O)=C(CSC(=O)c3nccs3)CS[C@H]12)c1ccccc1 (stereo partly drawn) [Compound 567, 7-[D-(-)-α-Aminophenylacetamido]-3-(thiazol-2-yl)carbonylthiomethyl-3-cephem-4-carboxylic acid]	125 (≈ 255 µM)	2 (≈ 4.08 µM)	8	0.3 (≈ 0.612 µM)	0.04	0.04	2 (≈ 4.08 µM)	2 (≈ 4.08 µM)	0.6 (≈ 1.22 µM)	0.08 (≈ 0.163 µM)	4 (≈ 8.15 µM)	4 (≈ 8.15 µM)	> 125	16 (≈ 32.6 µM)	4 (≈ 8.15 µM)	16000	14100	3400	< 400		MIC (E. coli Juhl A15119): 1 µg/mL (≈ 2.04 µM); MIC (K. pneumoniae A15130; read-out: M.I.C.): 8 µg/mL (≈ 16.3 µM); activity relative to cephalexin [3]: excellent activity relative to cephalexin; oral absorption ([4]; in words): good oral absorption properties; MIC (Pr. morganii A15153; [9]): 63 µg/mL (≈ 128 µM)
Cc1nc(C(=O)SCC2=C(C(=O)O)N3C(=O)C(NC(=O)[C@H](N)c4ccccc4)[C@H]3SC2)sc1C (stereo partly drawn) [Compound 587, 7-[D-α-aminophenylacetamido]-3-(4,5-dimethylthiazol-2-yl)carbonylthiomethyl-3-cephem-4-carboxylic acid]	> 125		> 63	0.3 (≈ 0.578 µM)	2.5	2.5	32 (≈ 61.7 µM)	1 (≈ 1.93 µM)	0.6 (≈ 1.16 µM)	2.5 (≈ 4.82 µM)	4 (≈ 7.71 µM)	32 (≈ 61.7 µM)	> 125	16 (≈ 30.8 µM)	4 (≈ 7.71 µM)	6300	8900	4300	2000	16 (≈ 30.8 µM)	MIC (Pr. mirabilis A9900): > 125 µg/mL; MIC (K. pneumoniae A15130): > 125 µg/mL; MIC (Pr. morganii A15153): > 125 µg/mL
Cc1csc(C(=O)SCC2=C(C(=O)O)N3C(=O)C(NC(=O)[C@H](N)c4ccccc4)[C@H]3SC2)n1 (stereo partly drawn) [Compound 556, 7-[D-α-aminophenylacetamido]-3-(4-methylthiazol-2-yl)carbonylthiomethyl-3-cephem-4-carboxylic acid]		32 (≈ 63.4 µM)	63	1.3 (≈ 2.58 µM)	1.3	2.5	32 (≈ 63.4 µM)	4 (≈ 7.93 µM)	1.3 (≈ 2.58 µM)	1 (≈ 1.98 µM)	4 (≈ 7.93 µM)	32 (≈ 63.4 µM)	125 (≈ 248 µM)	8 (≈ 15.9 µM)	4 (≈ 7.93 µM)	15200	16200	7800	< 2100	32 (≈ 63.4 µM)	MIC (Ser. marcescens A20019; [9]): 63 µg/mL (≈ 125 µM); MIC (K. pneumoniae A15130): 125 µg/mL (≈ 248 µM); Blood Level [4, 8]: 15200 ng/mL; MIC (Pr. morganii A15153): 125 µg/mL (≈ 248 µM)
N[C@@H](C(=O)NC1C(=O)N2C(C(=O)O)=C(CSC(=O)c3cncs3)CS[C@H]12)c1ccccc1 (stereo partly drawn) [Compound 602, 7-[D-(-)-α-aminophenylacetamido]-3-(thiazol-5-yl)carbonylthiomethyl-3-cephem-4-carboxylic acid]	> 125	16 (≈ 32.6 µM)	> 63	0.3 (≈ 0.612 µM)	0.6	0.6	16 (≈ 32.6 µM)	16 (≈ 32.6 µM)	1.3 (≈ 2.65 µM)	0.3 (≈ 0.612 µM)	4 (≈ 8.15 µM)	16 (≈ 32.6 µM)	> 125	63 (≈ 128 µM)	8 (≈ 16.3 µM)	11700	17600	9700	3300	4 (≈ 8.15 µM)	MIC (K. pneumoniae A15130; read-out: M.I.C.): 32 µg/mL (≈ 65.2 µM); MIC (Pr. morganii A15153): 125 µg/mL (≈ 255 µM)
